Laboratory results taken from patent publication US12655116B2, “Substituted isophthalic acid diamides” (Bayer Aktiengesellschaft, priority 2020, dated 2026).

What was measured:
[1] = tested on: ABUTH; experiment: Pre-emergence herbicidal action against ABUTH; format: in vivo, Abutilon theophrasti; conditions: for Pre-emergence action against ABUTH (herbicidal activity): 80 g/ha, scored visually after 3 weeks vs untreated controls (100% = plants have died, 0% = like control plants); for Pre-emergence action against ABUTH (herbicidal activity in percent): dosage 20 g/ha, scored visually after 3 weeks vs untreated controls, 100% = plants have died, 0% = like control plants
How it was run: (§1)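 Greenhouse pots of sandy loam held seeds covered with soil, onto which the compound was applied before emergence. An aqueous suspension or emulsion of WP or EC was used at 600 to 800 l/ha with 0.2% wetting agent. Percent damage was judged visually at 3 weeks.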

[2] = tested on: AMARE; experiment: Pre-emergence herbicidal action against AMARE; format: in vivo, Amaranthus retroflexus
How it was run: as §1

[3] = tested on: AVEFA; experiment: Pre-emergence herbicidal action against AVEFA; format: in vivo, Avena fatua; conditions: 80 g/ha, pre-emergence
How it was run: as §1

[4] = tested on: ECHCG; experiment: Pre-emergence herbicidal action against ECHCG; format: in vivo, Echinochloa crus-galli; conditions: 80 g/ha
How it was run: as §1

[5] = tested on: MATIN; experiment: Pre-emergence herbicidal action against MATIN; format: in vivo, Matricaria inodora
How it was run: as §1

[6] = tested on: SETVI; experiment: Pre-emergence herbicidal action against SETVI; format: in vivo, Setaria viridis; conditions: dosage 80 g/ha
How it was run: as §1

[7] = tested on: STEME; experiment: Pre-emergence herbicidal action against STEME; format: in vivo, Stellaria media
How it was run: as §1

[8] = tested on: VERPE; experiment: Pre-emergence herbicidal action against VERPE; format: in vivo, Veronica persica; conditions: dosage 80 g/ha
How it was run: as §1

[9] = tested on: VIOTR; experiment: Pre-emergence herbicidal action against VIOTR; format: in vivo, Viola tricolor
How it was run: as §1

[10] = tested on: DIGSA; experiment: Pre-emergence herbicidal action against DIGSA; format: in vivo, Digitaria sanguinalis
How it was run: as §1

[11] = tested on: ABUTH; experiment: Post-emergence herbicidal action against ABUTH; format: in vivo, Abutilon theophrasti; conditions: visual assessment about 3 weeks after treatment vs untreated controls
How it was run: (§2)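 Foliar application at one-leaf stage of formulated test compounds, aqueous spray at 600–800 l/ha with 0.2% wetting agent. Greenhouse, optimal conditions, ~3 weeks; damage scored visually in % relative to untreated plants.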

[12] = tested on: ALOMY; experiment: Post-emergence herbicidal action against ALOMY; format: in vivo, Alopecurus myosuroides; conditions: dosage 20 g/ha, visual assessment about 3 weeks after treatment vs untreated controls
How it was run: as §2

[13] = tested on: AMARE; experiment: Post-emergence herbicidal action against AMARE; format: in vivo, Amaranthus retroflexus; conditions: 20 g/ha, visual assessment about 3 weeks after treatment, 100% = plants have died, 0% = like control plants
How it was run: as §2

[14] = tested on: ECHCG; experiment: Post-emergence herbicidal action against ECHCG; format: in vivo, Echinochloa crus-galli
How it was run: as §2

[15] = tested on: MATIN; experiment: Post-emergence herbicidal action against MATIN; format: in vivo, Matricaria inodora; conditions: dosage 20 g/ha
How it was run: as §2

[16] = tested on: PHBPU; experiment: Post-emergence herbicidal action against PHBPU; format: in vivo, Pharbitis purpurea
How it was run: as §2

[17] = tested on: SETVI; experiment: Post-emergence herbicidal action against SETVI; format: in vivo, Setaria viridis
How it was run: as §2

[18] = tested on: STEME; experiment: Post-emergence herbicidal action against STEME; format: in vivo, Stellaria media
Experimental: Seeds of monocotyledonous and dicotyledonous weed and crop plants are laid out in sandy loam soil in wood-fiber pots, covered with soil and cultivated in a greenhouse under good growth conditions. 2 to 3 weeks after sowing, the test plants are treated at the one-leaf stage. The compounds of the invention, formulated in the form of wettable powders (WP) or as emulsion concentrates (EC), are then sprayed onto the green parts of the plants in the form of an aqueous suspension or emulsion at a water application rate equivalent to 600 to 800 l/ha, with addition of 0.2% wetting agent. After the test plants have been left to stand in the greenhouse under optimal growth conditions for about 3 weeks, the action of the preparations is assessed visually in comparison to untreated controls (herbicidal action in percent (%): 100% activity=the plants have died, 0% activity=like control plants). […] The tables below illustrate, in an illustrative manner, the post-emergence herbicidal action of the compounds of the invention, the herbicidal activity being stated in percent.

[19] = tested on: VERPE; experiment: Post-emergence herbicidal action against VERPE; format: in vivo, Veronica persica; conditions: 20 g/ha
How it was run: as §2

[20] = tested on: VIOTR; experiment: Post-emergence herbicidal action against VIOTR; format: in vivo, Viola tricolor
How it was run: as §2

[21] = tested on: DIGSA; experiment: Post-emergence herbicidal action against DIGSA; format: in vivo, Digitaria sanguinalis; conditions: for Post-emergence action against DIGSA in %: 5 g/ha; for Post-emergence action against DIGSA: 20 g/ha
How it was run: as §2

[22] = tested on: AVEFA; experiment: Post-emergence herbicidal action against AVEFA; format: in vivo, Avena fatua; conditions: 20 g/ha, visual assessment about 3 weeks after treatment, 100% = plants have died, 0% = like control plants
How it was run: as §2

[23] = tested on: POLCO; experiment: Pre-emergence herbicidal action against POLCO; format: in vivo, Polygonum convolvulus; conditions: dosage 80 g/ha
How it was run: as §1

[24] = tested on: ALOMY; experiment: Pre-emergence herbicidal action against ALOMY; format: in vivo, Alopecurus myosuroides; conditions: 80 g/ha, pre-emergence, scored visually after 3 weeks vs untreated controls (100% = plants have died, 0% = like control plants)
How it was run: as §1

[25] = 20 g/ha, scored visually after 3 weeks vs untreated controls, 100% = plants have died, 0% = like control plants
[26] = 80 g/ha, scored visually after 3 weeks vs untreated controls (100% = plants have died, 0% = like control plants)

Row | SMILES | Pre-emergence action against ABUTH (herbicidal activity) [1] | Pre-emergence action against ABUTH (herbicidal activity in percent) [1] | Pre-emergence action against AMARE in % [2, 25] | Pre-emergence action against AMARE in % [2, 26] | Pre-emergence action against ECHCG in % [4] | Pre-emergence action against MATIN in % ([5]; dosage 20 g/ha) | Pre-emergence action against MATIN in % ([5]; dosage 80 g/ha) | Pre-emergence action against SETVI in % [6] | Pre-emergence action against STEME in % ([7]; dosage 20 g/ha) | Pre-emergence action against STEME in % ([7]; dosage 80 g/ha) | Pre-emergence action against DIGSA in % ([10]; dosage 20 g/ha) | Pre-emergence action against DIGSA in % ([10]; dosage 80 g/ha) | Post-emergence action against ABUTH in % ([11]; dosage 5 g/ha) | Post-emergence action against ABUTH in % ([11]; dosage 20 g/ha) | Post-emergence action against ALOMY in % [12] | Post-emergence action at 20 g/ha against AMARE in % [13] | Post-emergence action against ECHCG in % ([14]; dosage 20 g/ha) | Post-emergence action against STEME in % ([18]; 20 g/ha) | Post-emergence action against DIGSA in % [21] | Post-emergence action against DIGSA [21] | other results
1 | CNC(=O)c1c(C(F)(F)F)ccc(C(=O)Nc2nnco2)c1SC [Example 5-58] | 100% | 90% | 100% | 100% | 90% | 90% | 100% | 100% | 100% | 100% | 90% | 100% | 90% | 90% | 80% | 90% | 90% | 90% | 90% | 100% | Pre-emergence action against AVEFA in % [3]: 80%; Pre-emergence action against VERPE in % [8]: 80%; Pre-emergence action against VIOTR in % ([9]; dosage 20 g/ha): 90%; Pre-emergence action against VIOTR in % ([9]; dosage 80 g/ha): 100%; Post-emergence action against ECHCG in % ([14]; dosage 5 g/ha): 80%; Post-emergence action against MATIN in % [15]: 80%; Post-emergence action against PHBPU in % ([16]; dosage 5 g/ha): 80%; Post-emergence action against PHBPU in % ([16]; dosage 20 g/ha): 90%; Post-emergence action against SETVI in % ([17]; dosage 5 g/ha): 80%; Post-emergence action against SETVI in % ([17]; dosage 20 g/ha): 100%; Post-emergence action against STEME in % ([18]; dosage 5 g/ha): 90%; Post-emergence action against VERPE in % [19]: 80%; Post-emergence action against VIOTR in % ([20]; 5 g/ha): 80%; Post-emergence action against VIOTR in % ([20]; 20 g/ha): 80%
2 | CCNC(=O)c1c(C(F)F)ccc(C(=O)Nc2nnco2)c1SC [Example 5-75] | 100% | 100% | 100% | 100% | 100% | 80% | 100% | 100% | 100% | 100% | 100% | 100% | 90% | 90% | 80% | 90% | 80% | 100% | 90% | 90% | Pre-emergence action against VERPE in % [8]: 90%; Pre-emergence action against VIOTR in % ([9]; dosage 20 g/ha): 100%; Pre-emergence action against VIOTR in % ([9]; dosage 80 g/ha): 100%; Post-emergence action at 20 g/ha against AVEFA in % [22]: 80%; Post-emergence action against ECHCG in % ([14]; dosage 5 g/ha): 80%; Post-emergence action against MATIN in % [15]: 80%; Post-emergence action against PHBPU in % ([16]; dosage 5 g/ha): 80%; Post-emergence action against PHBPU in % ([16]; dosage 20 g/ha): 80%; Post-emergence action against SETVI in % ([17]; dosage 5 g/ha): 80%; Post-emergence action against SETVI in % ([17]; dosage 20 g/ha): 80%; Post-emergence action against STEME in % ([18]; dosage 5 g/ha): 90%; Post-emergence action against VIOTR in % ([20]; 20 g/ha): 80%
3 | CCNC(=O)c1c(C(F)F)ccc(C(=O)Nc2nnc(C)o2)c1C [Example 6-32] | 80% | – | 80% | 100% | 90% | – | 90% | – | – | 90% | 90% | 100% | 80% | 80% | – | 100% | – | 80% | 80% | 80% | Pre-emergence action against POLCO in % [23]: 80%; Post-emergence action against SETVI in % ([17]; dosage 20 g/ha): 80%
4 | Cc1nnc(NC(=O)c2ccc(C(F)(F)F)c(C(=O)NC3CC3)c2Cl)o1 [Example 6-118] | 100% | 100% | 80% | 100% | 100% | 90% | 100% | 100% | 90% | 100% | 90% | 100% | 80% | 90% | 80% | 100% | 90% | 100% | 100% | 100% | Pre-emergence action against ALOMY (herbicidal activity) [24]: 100%; Pre-emergence action against AVEFA in % [3]: 90%; Pre-emergence action against POLCO in % [23]: 80%; Pre-emergence action against VIOTR in % ([9]; dosage 20 g/ha): 90%; Pre-emergence action against VIOTR in % ([9]; dosage 80 g/ha): 90%; Post-emergence action against MATIN in % [15]: 80%; Post-emergence action against VIOTR in % ([20]; 20 g/ha): 80%
5 | CCc1c(C(=O)Nc2nnc(C)o2)ccc(C(F)(F)F)c1C(=O)NC1CC1 [Example 6-212] | 90% | 80% | 90% | 90% | 90% | 80% | 90% | 90% | 80% | 90% | 100% | 100% | 80% | 90% | 80% | 90% | 90% | 90% | 80% | 90% | Pre-emergence action against ALOMY (herbicidal activity) [24]: 80%; Post-emergence action against ECHCG in % ([14]; dosage 5 g/ha): 90%; Post-emergence action against SETVI in % ([17]; dosage 20 g/ha): 80%; Post-emergence action against STEME in % ([18]; dosage 5 g/ha): 80%
